Experimental data: patent publication US20220062240A1, “METHODS OF TREATING CANCER USING A CLK INHIBITOR” (BioSplice Therapeutics, Inc., priority 2018, published 2022)
Where two headings read alike, the source gives them in different places.

Key:
CLK2 = biological target: T1, CLK2 (Homo sapiens, UniProt P49760); experiment: CLK2 kinase activity assay (Z-lyte, Ser/Thr 6 peptide); format: biochemical; settings: recombinant CLK2 kinase, ATP 60 μM; read-out: EC50
T1 construct: purchased Thermo Fisher (Life Technologies), Z'-LYTE Kinase Assay Kits
Experimental: All reactions were performed in duplicate.

[1] = test system: pancreatic cancer (8 cell lines); experiment: CellTiter-Glo Viability Assay, pancreatic cancer; format: cell-based; settings: Homo sapiens, inhibition of cancer cell proliferation
[2] = test system: ovarian cancer (4 cell lines); experiment: CellTiter-Glo Viability Assay, ovarian cancer; format: cell-based; settings: Homo sapiens, inhibition of cancer cell proliferation
[3] = test system: liver cancer (3 cell lines); experiment: CellTiter-Glo Viability Assay, liver cancer; format: cell-based; settings: Homo sapiens, inhibition of cancer cell proliferation
[4] = test system: prostate cancer (5 cell lines); experiment: CellTiter-Glo Viability Assay, prostate cancer; format: cell-based; settings: Homo sapiens
all 50 cell lines = experiment: CellTiter-Glo Viability Assay, average across all cell lines; format: cell-based; settings: Homo sapiens; across all 50 cell lines; read-out: average EC50 for inhibition of cancer cell proliferation
How it was run: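 Human cancer cell lines from breast, colorectal, haematopoietic/lymphoid, liver, lung, ovarian, pancreatic and prostate tumours were seeded at 300-3,000 cells/well and exposed to compound in duplicate for four days at 37° C, 5% CO2. Viable cells were measured by ATP luminescence; EC50 values came from dose-response curves.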

[5] = test system: colorectal cancer (6 cell lines); experiment: CellTiter-Glo Viability Assay, colorectal cancer; format: cell-based; settings: Homo sapiens, inhibition of cancer cell proliferation
CLK3 = CLK3 (Homo sapiens, UniProt P49761); experiment: CLK3 kinase activity assay (Z-lyte, Ser/Thr 18 peptide)
[6] = test system: lung cancer (4 cell lines); experiment: CellTiter-Glo Viability Assay, lung cancer; format: cell-based; settings: Homo sapiens, inhibition of cancer cell proliferation
MCF7 = experiment: CellTiter-Glo Viability Assay, breast cancer; format: cell-based; settings: Homo sapiens, 96 h; MCF7, breast cancer, four days; read-out: EC50
ZR-75-1 = experiment: CellTiter-Glo Viability Assay, breast cancer; format: cell-based; settings: Homo sapiens, 96 h; ZR-75-1, breast cancer, four days; read-out: EC50
T47D = experiment: CellTiter-Glo Viability Assay, breast cancer; format: cell-based; settings: Homo sapiens, 96 h, breast cancer, four days, read-out: EC50
CAMA1 = experiment: CellTiter-Glo Viability Assay, breast cancer; format: cell-based; settings: Homo sapiens, CAMA-1, 96 h; CAMA1, breast cancer, four days; read-out: EC50
HCC1599 = experiment: CellTiter-Glo Viability Assay, breast cancer; format: cell-based; settings: Homo sapiens, 96 h; HCC1599, breast cancer, four days; read-out: EC50
DU4475 = experiment: CellTiter-Glo Viability Assay, breast cancer; format: cell-based; settings: Homo sapiens, DU-4475, 96 h; DU4475, breast cancer, four days; read-out: EC50
BT-549 = experiment: CellTiter-Glo Viability Assay, breast cancer; format: cell-based; settings: Homo sapiens, 96 h; BT-549, breast cancer, four days; read-out: EC50
MDA-MB-231-Luc = experiment: CellTiter-Glo Viability Assay, breast cancer; format: cell-based; settings: Homo sapiens, 96 h; MDA-MB-231-Luc, breast cancer, four days; read-out: EC50
[7] = test system: haematopoietic & lymphoid tumors (13 cell lines); experiment: CellTiter-Glo Viability Assay, haematopoietic & lymphoid tumors; format: cell-based; settings: Homo sapiens, inhibition of cancer cell proliferation
[8] = BXPC-3, BxPC3 cell line, read-out: Pancreatic cancer, EC50 BxPC3
[9] = CAPAN-1, Capan1 cell line, read-out: Pancreatic cancer, EC50 Capan1
[10] = Capan-2, Capan2 cell line, read-out: Pancreatic cancer, EC50 Capan2
[11] = MIA PaCa-2 cell line, read-out: Pancreatic cancer, EC50 MIA PaCa-2
[12] = PANC 05.04 cell line, read-out: Pancreatic cancer, EC50 PANC 05.04
[13] = PANC-1 cell line, read-out: Pancreatic cancer, EC50 PANC-1
[14] = UPAFII cell line, read-out: Pancreatic cancer, EC50 UPAFII
[15] = PA-1, PA1 cell line, read-out: Ovarian cancer, EC50 (μM) PA1
[16] = TOV112D, TOV-112D cell line, read-out: Ovarian cancer, EC50 (μM) TOV-112D
[17] = OV-90 cell line, read-out: Ovarian cancer, EC50 (μM) OV-90
[18] = OVCAR-3 cell line, read-out: Ovarian cancer, EC50 (μM) OVCAR-3
[19] = SNU-398, SNU398 cell line, read-out: Liver cancer, EC50 SNU398
[20] = HEPG2 cell line, read-out: Liver cancer, EC50 HEPG2
[21] = PLC/PRF/5 cell line, read-out: Liver cancer, EC50 PLC/PRF/5
[22] = DU-145, read-out: Prostate cancer EC50 Du-145
[23] = PC-3, PC3 cell line, inhibition of cancer cell proliferation, read-out: Prostate cancer EC50 PC3
[24] = 22Rv1 cell line, inhibition of cancer cell proliferation, read-out: Prostate cancer EC50 22Rv1
[25] = LNCap clone FGC cell line, inhibition of cancer cell proliferation, read-out: Prostate cancer EC50 LNCap clone FGC
[26] = VCaP (Sigma) cell line, inhibition of cancer cell proliferation, read-out: Prostate cancer EC50 VCaP (Sigma)
[27] = HCT-116, HCT116 cell line, read-out: Colorectal cancer, EC50 (μM) HCT116
[28] = HT-29, HT29 cell line, read-out: Colorectal cancer, EC50 (μM) HT29
[29] = SW-620, SW620 cell line, read-out: Colorectal cancer, EC50 (μM) SW620
[30] = DLD-1 cell line, read-out: Colorectal cancer, EC50 (μM) DLD-1
[31] = SW48 cell line, read-out: Colorectal cancer, EC50 (μM) SW48
[32] = SW480 cell line, read-out: Colorectal cancer, EC50 (μM) SW480
[33] = A-427, A427 cell line, read-out: Lung cancer, EC50 (μM) A427
[34] = HCC78, HCC-78 cell line, read-out: Lung cancer, EC50 (μM) HCC-78
[35] = NCI-H460 cell line, read-out: Lung cancer, EC50 (μM) NCI-H460
[36] = NCI-H522 cell line, read-out: Lung cancer, EC50 (μM) NCI-H522
[37] = DND41, DND-41 cell line, read-out: Haematopoietic & Lymphoid tumors, EC50 (μM) DND-41
[38] = MV4-11, MV-4-11 cell line, read-out: Haematopoietic & Lymphoid tumors, EC50 (μM) MV-4-11
[39] = Rec1, REC-1 cell line, read-out: Haematopoietic & Lymphoid tumors, EC50 (μM) REC-1
[40] = SU-DHL-4, SUDHL4 cell line, read-out: Haematopoietic & Lymphoid tumors, EC50 (μM) SUDHL4
[41] = HL-60 cell line, read-out: Haematopoietic & Lymphoid tumors, EC50 (μM) HL-60
[42] = JM1 cell line, read-out: Haematopoietic & Lymphoid tumors, EC50 (μM) JM1
[43] = JURKAT, Clone E6-1 cell line, read-out: Haematopoietic & Lymphoid tumors, EC50 (μM) JURKAT, Clone E6-1
[44] = JeKo-1 cell line, read-out: Haematopoietic & Lymphoid tumors, EC50 (μM) JeKo-1
[45] = KASUMI-1 cell line, read-out: Haematopoietic & Lymphoid tumors, EC50 (μM) KASUMI-1
[46] = Loucy cell line, read-out: Haematopoietic & Lymphoid tumors, EC50 (μM) Loucy
[47] = MOLT-4 cell line, read-out: Haematopoietic & Lymphoid tumors, EC50 (μM) MOLT-4
[48] = TF-1 cell line, read-out: Haematopoietic & Lymphoid tumors, EC50 (μM) TF-1
[49] = TOLEDO cell line, read-out: Haematopoietic & Lymphoid tumors, EC50 (μM) TOLEDO

Chain of CLK3 (P49761 whole entry): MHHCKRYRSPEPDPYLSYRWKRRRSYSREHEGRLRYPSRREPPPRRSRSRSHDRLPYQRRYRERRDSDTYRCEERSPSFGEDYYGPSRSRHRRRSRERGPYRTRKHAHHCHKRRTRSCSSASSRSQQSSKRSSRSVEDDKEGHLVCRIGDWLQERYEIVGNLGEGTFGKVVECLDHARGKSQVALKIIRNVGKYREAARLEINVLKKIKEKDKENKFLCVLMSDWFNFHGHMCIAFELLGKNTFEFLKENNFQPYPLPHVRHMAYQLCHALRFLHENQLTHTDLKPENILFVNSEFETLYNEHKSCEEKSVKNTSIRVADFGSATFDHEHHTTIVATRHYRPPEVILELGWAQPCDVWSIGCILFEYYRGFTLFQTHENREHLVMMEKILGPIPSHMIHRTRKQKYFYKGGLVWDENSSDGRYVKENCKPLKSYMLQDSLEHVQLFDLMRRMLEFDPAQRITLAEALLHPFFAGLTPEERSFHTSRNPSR
T1 sequence (P49760 whole entry): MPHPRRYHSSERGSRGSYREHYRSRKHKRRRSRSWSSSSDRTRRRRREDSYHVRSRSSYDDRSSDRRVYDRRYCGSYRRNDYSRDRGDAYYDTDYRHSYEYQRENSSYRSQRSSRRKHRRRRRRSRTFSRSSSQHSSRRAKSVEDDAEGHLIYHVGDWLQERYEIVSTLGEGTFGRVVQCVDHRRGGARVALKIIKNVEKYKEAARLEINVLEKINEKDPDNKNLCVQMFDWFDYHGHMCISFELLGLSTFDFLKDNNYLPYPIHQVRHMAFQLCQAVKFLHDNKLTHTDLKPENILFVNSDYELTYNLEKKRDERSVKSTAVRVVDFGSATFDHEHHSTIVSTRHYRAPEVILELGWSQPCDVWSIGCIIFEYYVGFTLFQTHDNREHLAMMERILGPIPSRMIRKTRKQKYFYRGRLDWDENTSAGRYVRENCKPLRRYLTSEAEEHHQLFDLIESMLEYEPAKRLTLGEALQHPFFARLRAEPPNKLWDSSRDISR

For O=C(Nc1cncc(-c2ccc3[nH]nc(-c4cc5cnccc5[nH]4)c3c2)c1)C1CCCCC1 [Compound 47], the EC50 (CLK2) was 1.3 nM, the EC50 [1, 8] was 770 nM and the EC50 [1, 9] was 761 nM. The EC50 [1, 10] was 540 nM, the EC50 [1, 11] was 112 nM and the EC50 [1, 12] was 791 nM. It also gave an EC50 [1, 13] of 1780 nM, an EC50 [1, 14] of 357 nM and an EC50 [2, 15] of 0.403 µM. For the same molecule, the EC50 [2, 16] was 0.192 µM, the EC50 [2, 17] was 0.567 µM and the EC50 [2, 18] was 0.179 µM. For the same molecule, the EC50 [3, 19] was 57 nM, the EC50 [3, 20] was 371 nM and the EC50 [3, 21] was 1820 nM. For the same molecule, the EC50 [4, 22] was 459 nM, the EC50 [4, 23] was 322 nM and the EC50 [4, 24] was 283 nM. For the same molecule, the EC50 [4, 25] was 965 nM, the EC50 [4, 26] was 574 nM and the EC50 (all 50 cell lines) was 516 nM. For the same molecule, the EC50 [5, 27] was 0.402 µM, the EC50 [5, 28] was 1.43 µM and the EC50 [5, 29] was 0.164 µM. It also gave an EC50 [5, 30] of 0.658 µM, an EC50 [5, 31] of 0.164 µM and an EC50 [5, 32] of 0.22 µM. It also gave an EC50 (CLK3) of 17.6 nM, an EC50 [6, 33] of 0.14 µM and an EC50 [6, 34] of 0.666 µM. The EC50 [6, 35] was 2.64 µM, the EC50 [6, 36] was 0.157 µM and the EC50 (MCF7) was 1960 nM. For the same molecule, the EC50 (ZR-75-1) was 358 nM, the EC50 (T47D) was 468 nM and the EC50 (CAMA1) was 210 nM. For the same molecule, the EC50 (HCC1599) was 75 nM, the EC50 (DU4475) was 77 nM and the EC50 (BT-549) was 409 nM. For the same molecule, the EC50 (MDA-MB-231-Luc) was 407 nM, the EC50 [7, 37] was 0.129 µM and the EC50 [7, 38] was 0.07 µM. It also gave an EC50 [7, 39] of 0.453 µM, an EC50 [7, 40] of 0.14 µM and an EC50 [7, 41] of 0.769 µM. For the same molecule, the EC50 [7, 42] was 0.075 µM, the EC50 [7, 43] was 0.466 µM and the EC50 [7, 44] was 0.048 µM. For the same molecule, the EC50 [7, 45] was 0.25 µM, the EC50 [7, 46] was 0.136 µM and the EC50 [7, 47] was 0.404 µM. The EC50 [7, 48] was 0.861 µM and the EC50 [7, 49] was 0.077 µM.

Molecule c1cncc(-c2ccc3[nH]nc(-c4cc5c(-c6cccnc6)cncc5[nH]4)c3c2)c1 [Compound 48] has an EC50 (CLK2) of 0.1 nM, an EC50 [1, 8] of 3300 nM and an EC50 [1, 9] of 2760 nM. It also gave an EC50 [1, 10] greater than 3500 nM, an EC50 [1, 11] of 1000 nM and an EC50 [1, 12] greater than 3500 nM. For the same molecule, the EC50 [1, 13] was greater than 3500 nM, the EC50 [1, 14] was 1800 nM and the EC50 [2, 15] was 1.29 µM. The EC50 [2, 16] was 1.68 µM, the EC50 [2, 17] was greater than 3.5 µM and the EC50 [2, 18] was 0.89 µM. For the same molecule, the EC50 [3, 19] was 381 nM, the EC50 [3, 20] was 2200 nM and the EC50 [3, 21] was greater than 3500 nM. For the same molecule, the EC50 [4, 22] was 1870 nM, the EC50 [4, 23] was 1030 nM and the EC50 [4, 24] was 1140 nM. For the same molecule, the EC50 [4, 25] was greater than 3500 nM, the EC50 [4, 26] was 2000 nM and the EC50 (all 50 cell lines) was 3220 nM. It also gave an EC50 [5, 27] of 1.17 µM, an EC50 [5, 28] of 1.54 µM and an EC50 [5, 29] of 0.886 µM. For the same molecule, the EC50 [5, 30] was 2.21 µM, the EC50 [5, 31] was 0.63 µM and the EC50 [5, 32] was 1.57 µM. For the same molecule, the EC50 (CLK3) was 2.5 nM, the EC50 [6, 33] was 0.875 µM and the EC50 [6, 34] was greater than 3.5 µM. The EC50 [6, 35] was greater than 3.5 µM, the EC50 [6, 36] was 1.17 µM and the EC50 (MCF7) was greater than 3500 nM. It also gave an EC50 (ZR-75-1) of 3410 nM, an EC50 (T47D) greater than 3500 nM and an EC50 (CAMA1) of 1910 nM. For the same molecule, the EC50 (HCC1599) was 146 nM, the EC50 (DU4475) was 1000 nM and the EC50 (BT-549) was 1310 nM. For the same molecule, the EC50 (MDA-MB-231-Luc) was 2860 nM, the EC50 [7, 37] was 0.894 µM and the EC50 [7, 38] was 0.147 µM. The EC50 [7, 39] was 2.31 µM, the EC50 [7, 40] was 1.23 µM and the EC50 [7, 41] was 3.06 µM. For the same molecule, the EC50 [7, 42] was 0.409 µM, the EC50 [7, 43] was 1.77 µM and the EC50 [7, 44] was 0.455 µM. It also gave an EC50 [7, 45] of 2.01 µM, an EC50 [7, 46] of 0.952 µM and an EC50 [7, 47] of 2.52 µM. It also gave an EC50 [7, 48] of 2.92 µM and an EC50 [7, 49] of 0.317 µM.
